Experimental data as given in patent publication US20140005163A1 (NOVARTIS AG, priority 2010, published 2014).
pIC50: −log10 of the molar value. Values after ≈ are worked out from the molar mass of the structure shown.

How the values were obtained:
[1] = target: T1, PI3K beta (Homo sapiens, UniProt P42338); assay: PI3K beta kinase assay (Kinase-Glo luminescence); assay type: biochemical
T1 construct: for the full-length p110-b subunit are generated and fused by overlapping PCR; p85(iSH2) fusion partner (see partner chain) (N); His tag (C); made in house; host or cells: baculovirus; Tn5 (Trichoplusia ni) or TiniPro insect cells
T1 sequence (P42338 with tags, fused parts or gaps limits assumed): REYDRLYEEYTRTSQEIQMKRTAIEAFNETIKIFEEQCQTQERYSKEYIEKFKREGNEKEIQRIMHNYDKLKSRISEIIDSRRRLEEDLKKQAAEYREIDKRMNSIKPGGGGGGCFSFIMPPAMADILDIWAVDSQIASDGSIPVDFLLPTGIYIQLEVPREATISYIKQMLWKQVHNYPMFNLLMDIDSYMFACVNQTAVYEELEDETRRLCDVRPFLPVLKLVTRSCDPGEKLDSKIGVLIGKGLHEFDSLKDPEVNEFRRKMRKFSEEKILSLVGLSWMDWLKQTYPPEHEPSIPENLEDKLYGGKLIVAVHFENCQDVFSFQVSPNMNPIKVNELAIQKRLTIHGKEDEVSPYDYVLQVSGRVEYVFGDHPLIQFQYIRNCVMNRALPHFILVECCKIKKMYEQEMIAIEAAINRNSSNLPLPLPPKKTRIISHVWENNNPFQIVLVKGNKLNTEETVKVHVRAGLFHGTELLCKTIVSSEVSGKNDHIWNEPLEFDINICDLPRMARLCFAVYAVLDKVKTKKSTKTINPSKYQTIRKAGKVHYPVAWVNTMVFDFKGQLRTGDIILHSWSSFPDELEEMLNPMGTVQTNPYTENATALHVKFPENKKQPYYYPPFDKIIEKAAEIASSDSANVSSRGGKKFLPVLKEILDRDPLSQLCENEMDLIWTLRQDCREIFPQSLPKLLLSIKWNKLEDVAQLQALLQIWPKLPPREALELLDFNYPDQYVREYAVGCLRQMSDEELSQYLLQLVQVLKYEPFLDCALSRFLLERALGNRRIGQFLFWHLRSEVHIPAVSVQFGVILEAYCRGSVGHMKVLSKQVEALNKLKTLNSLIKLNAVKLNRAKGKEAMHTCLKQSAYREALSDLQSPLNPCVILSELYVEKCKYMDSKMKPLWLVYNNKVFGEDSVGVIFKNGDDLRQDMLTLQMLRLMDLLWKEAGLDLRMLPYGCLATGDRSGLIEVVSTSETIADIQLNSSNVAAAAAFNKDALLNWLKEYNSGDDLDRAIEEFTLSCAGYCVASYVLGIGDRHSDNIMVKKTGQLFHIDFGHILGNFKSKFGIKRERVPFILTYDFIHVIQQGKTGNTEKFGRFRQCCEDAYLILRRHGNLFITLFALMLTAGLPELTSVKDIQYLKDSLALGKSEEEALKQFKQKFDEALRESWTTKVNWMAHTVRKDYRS
Description: (§1) In a more preferred assay, the kinase reaction is performed in a final volume of 10 μL per well of a low volume non binding CORNING, 384 well black plate (Cat. No. #3676). The final concentrations of ATP and phosphatidyl inositol (PI) in the assay are 1 μM and 10 μg/mL respectively. The reaction is started by the addition of ATP.
(§2) The components of the assay are added per well as follows:
(§3) […] in 90% DMSO per well, in columns 1-20, 8 concentrations (1/3 and 1/3.33 serial dilution step) in single. • Low control: […] of 90% DMSO in half the wells of columns 23-24 (0.45% in final). • High control: […] of reference compound (e.g. compound of Example 7 in WO 2006/122806) in the other half of columns 23-24 (2.5 μM in final). • Standard: […] of reference compound as just mentioned diluted as the test compounds in columns 21-22 • 20 mL ‘buffer’ are prepared per assay: • 200 μL of 1M TRIS HCl pH7.5 (10 mM in final) • 60 μL of 1M MgCl2 (3 mM in final) • 500 μL of 2M NaCl (50 mM in final) • 100 μL of 10% CHAPS (0.05% in final) • 200 μL of 100 mM DTT (1 mM in final) • 18.94 mL of nanopure water • 10 mL ‘PI’ are prepared per assay: • 200 μL of 1 mg/ml L-alpha-Phosphatidylinositol (Liver Bovine, Avanti Polar Lipids Cat. No. 840042C MW=909.12) prepared in 3% OctylGlucoside (10 μg/ml in final) • 9.8 mL of ‘buffer’ • 10 mL ‘ATP’ are prepared per assay: • 6.7 μL of 3 mM stock of ATP giving a final concentration of 1 μM per well • 10 mL of ‘buffer’ • 2.5 mL of each PI3K construct are prepared per assay in ‘PI’ with the following final concentration: • 10 nM PI3K alfa EMV B1075 • 25 nM beta EMV BV949 • 10 nM delta EMV BV1060 • 150 nM gamma EMV BV950 • 5 μL of ‘PI/PI3K’ are added per well. • 5 μl ‘ATP’ are added per well to start the reaction. • The plates are then incubated at room temperature for 60 minutes (alfa, beta, delta) or 120 minutes (gamma). • The reaction is terminated by the addition of 10 μL Kinase-Glo (Promega Cat. No. #6714). • The assay plates are read after 10 minutes in Synergy 2 reader (BioTek, Vermont USA) with an integration time of 100 milliseconds and sensitivity set to 191. • Output: The High control is around 60'000 counts and the Low control is 30'000 or lower • This luminescence assay gives a useful Z′ ratio between 0.4 and 0.7
PI3Kβ BV-949 p85(iSH2)-Gly Linker-p110b(Full-Length)-C-Term his Tag
(§4) IC50 is determined by a four parameter curve fitting routine that comes along with “excel fit”. […] Alternatively, IC50 values are calculated using idbsXLfit model 204, which is a 4 parameter logistic model.

[2] = Solubility at pH 6.8; assay type: physicochemical; conditions: pH 6.8, aqueous buffer, thermodynamic from solid; read-out: solubility
From the text: The physicochemical properties of relevance for the absorption of the compound, such as the solubility and the membrane permeability, especially at a pH close to neutral pH can be measured using the procedure as described by L. ZHOU et al. in JOURNAL OF PHARMACEUTICAL SCIENCES, VOL. 96, NO. 11, p. 3052-3071 (2007) for the solubility at pH 6.8 and the procedure as described by F. Wohnsland and B. Faller in Journal of Medicinal Chemistry Vol 44, p. 923-930 (2001) for the Parallel Artificial Membrane Permeability Assay (PAMPA) at pH 6.8.

[3] = system: PKB Ser473 phosphorylation in Rat1-myr-HA-p110 alpha cells; assay: Reverse protein array assay, PKB Ser473 phosphorylation in Rat1-myr-p110 alpha cells; assay type: cell-based; conditions: 0.5 h, pAkt Ser473, 30 minutes compound incubation, read-out: p-PKB IC50
Method in brief: (§5)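 Compound exposure lasted 30 min in Rat1 cells bearing membrane-targeted HA-p110 isoforms, using 8 serial concentrations. Arrayed lysates, each spotted at four dilutions, gave relative fluorescence signals for phospho-Ser473 PKB.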

[4] = target: T2, PI3K delta (Homo sapiens, UniProt O00329); assay: PI3K delta kinase assay (Kinase-Glo luminescence); assay type: biochemical
T2 construct: for the full-length p110-d subunit are generated and fused by overlapping PCR; p85(iSH2) fusion partner (see partner chain) (N); His tag (C); made in house; host or cells: baculovirus; Tn5 (Trichoplusia ni) or TiniPro insect cells
T2 sequence (O00329 with tags, fused parts or gaps limits assumed): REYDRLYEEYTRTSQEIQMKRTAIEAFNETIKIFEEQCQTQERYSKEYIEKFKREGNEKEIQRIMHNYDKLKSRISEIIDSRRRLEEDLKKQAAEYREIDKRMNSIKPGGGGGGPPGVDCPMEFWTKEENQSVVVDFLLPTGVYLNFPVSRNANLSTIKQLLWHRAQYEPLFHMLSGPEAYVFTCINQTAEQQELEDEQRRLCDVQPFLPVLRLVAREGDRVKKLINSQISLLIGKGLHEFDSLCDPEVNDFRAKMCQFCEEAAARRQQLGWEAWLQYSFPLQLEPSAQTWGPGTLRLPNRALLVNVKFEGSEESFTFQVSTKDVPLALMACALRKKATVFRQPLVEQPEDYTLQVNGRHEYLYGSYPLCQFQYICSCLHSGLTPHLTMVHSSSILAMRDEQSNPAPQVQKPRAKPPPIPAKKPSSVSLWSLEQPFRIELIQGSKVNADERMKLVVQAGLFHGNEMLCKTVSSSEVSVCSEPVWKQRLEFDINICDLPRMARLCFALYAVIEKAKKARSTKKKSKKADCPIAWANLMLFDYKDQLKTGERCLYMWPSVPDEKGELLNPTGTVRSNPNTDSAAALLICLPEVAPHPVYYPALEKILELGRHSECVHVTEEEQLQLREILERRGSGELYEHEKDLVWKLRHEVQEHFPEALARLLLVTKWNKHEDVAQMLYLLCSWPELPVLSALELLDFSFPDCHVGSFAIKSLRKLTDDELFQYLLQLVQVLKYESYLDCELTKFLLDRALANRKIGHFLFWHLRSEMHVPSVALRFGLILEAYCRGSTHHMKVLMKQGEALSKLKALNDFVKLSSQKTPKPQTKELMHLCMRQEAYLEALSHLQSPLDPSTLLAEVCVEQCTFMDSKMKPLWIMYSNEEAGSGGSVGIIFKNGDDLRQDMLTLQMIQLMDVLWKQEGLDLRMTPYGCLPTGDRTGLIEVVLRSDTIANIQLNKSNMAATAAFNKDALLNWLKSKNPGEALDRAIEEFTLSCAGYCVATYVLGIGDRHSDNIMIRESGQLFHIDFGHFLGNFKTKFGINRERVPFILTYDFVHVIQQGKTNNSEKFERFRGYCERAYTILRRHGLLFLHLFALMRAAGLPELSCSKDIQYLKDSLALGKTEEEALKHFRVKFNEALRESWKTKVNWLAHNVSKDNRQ
Method in brief: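 Kinase-Glo luminescence read-out of ATP remaining after 60 min at RT. Enzyme: 10 nM BV1060 (p85 iSH2–p110δ fusion, His-tagged); substrate 10 μg/mL PI, ATP 1 μM final; Tris pH 7.5 buffer with MgCl2, NaCl, CHAPS, DTT. IC50 from 4-parameter logistic fit over 8 concentrations.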

[5] = system: PKB Ser473 phosphorylation in Rat1-myr-HA-p110 beta cells; assay: Reverse protein array assay, PKB Ser473 phosphorylation in Rat1-myr-p110 beta cells; assay type: cell-based; conditions: 0.5 h, pAkt Ser473, 30 minutes incubation, read-out: p-PKB IC50
Method in brief: as §5

[6] = system: PKB Ser473 phosphorylation in Rat1-myr-HA-p110 delta cells; assay: Reverse protein array assay, PKB Ser473 phosphorylation in Rat1-myr-p110 delta cells; assay type: cell-based; conditions: read-out: p-PKB IC50
Method in brief: as §5

[7] = target: T3, PI3K alpha (Homo sapiens, UniProt P42336); assay: PI3K alpha kinase assay (Kinase-Glo luminescence); assay type: biochemical
T3 construct: p85(iSH2) fusion partner (see partner chain) (N); His tag (C); made in house; host or cells: baculovirus; Tn5 (Trichoplusia ni) or TiniPro insect cells
Method in brief: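 Read-out: Kinase-Glo luminescence of ATP left after 60 min at room temperature. Conditions: 10 nM PI3Kα (EMV B1075), 1 μM ATP, 10 μg/mL PI substrate, Tris pH 7.5 buffer with MgCl2, NaCl, CHAPS and DTT. IC50s fitted with a four-parameter logistic model.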

[8] = target: T4, mTOR (Homo sapiens, UniProt P42345); assay: Biochemical assay for m-TOR by TR-FRET; conditions: 8 μM ATP, 400 nM GFP-4EBP1, 0.5 nM mTOR
T4 construct: purchased Invitrogen Corporation (Carlsbad/CA, USA) PV4753
T4 sequence (P42345 1360-2549 limits assumed): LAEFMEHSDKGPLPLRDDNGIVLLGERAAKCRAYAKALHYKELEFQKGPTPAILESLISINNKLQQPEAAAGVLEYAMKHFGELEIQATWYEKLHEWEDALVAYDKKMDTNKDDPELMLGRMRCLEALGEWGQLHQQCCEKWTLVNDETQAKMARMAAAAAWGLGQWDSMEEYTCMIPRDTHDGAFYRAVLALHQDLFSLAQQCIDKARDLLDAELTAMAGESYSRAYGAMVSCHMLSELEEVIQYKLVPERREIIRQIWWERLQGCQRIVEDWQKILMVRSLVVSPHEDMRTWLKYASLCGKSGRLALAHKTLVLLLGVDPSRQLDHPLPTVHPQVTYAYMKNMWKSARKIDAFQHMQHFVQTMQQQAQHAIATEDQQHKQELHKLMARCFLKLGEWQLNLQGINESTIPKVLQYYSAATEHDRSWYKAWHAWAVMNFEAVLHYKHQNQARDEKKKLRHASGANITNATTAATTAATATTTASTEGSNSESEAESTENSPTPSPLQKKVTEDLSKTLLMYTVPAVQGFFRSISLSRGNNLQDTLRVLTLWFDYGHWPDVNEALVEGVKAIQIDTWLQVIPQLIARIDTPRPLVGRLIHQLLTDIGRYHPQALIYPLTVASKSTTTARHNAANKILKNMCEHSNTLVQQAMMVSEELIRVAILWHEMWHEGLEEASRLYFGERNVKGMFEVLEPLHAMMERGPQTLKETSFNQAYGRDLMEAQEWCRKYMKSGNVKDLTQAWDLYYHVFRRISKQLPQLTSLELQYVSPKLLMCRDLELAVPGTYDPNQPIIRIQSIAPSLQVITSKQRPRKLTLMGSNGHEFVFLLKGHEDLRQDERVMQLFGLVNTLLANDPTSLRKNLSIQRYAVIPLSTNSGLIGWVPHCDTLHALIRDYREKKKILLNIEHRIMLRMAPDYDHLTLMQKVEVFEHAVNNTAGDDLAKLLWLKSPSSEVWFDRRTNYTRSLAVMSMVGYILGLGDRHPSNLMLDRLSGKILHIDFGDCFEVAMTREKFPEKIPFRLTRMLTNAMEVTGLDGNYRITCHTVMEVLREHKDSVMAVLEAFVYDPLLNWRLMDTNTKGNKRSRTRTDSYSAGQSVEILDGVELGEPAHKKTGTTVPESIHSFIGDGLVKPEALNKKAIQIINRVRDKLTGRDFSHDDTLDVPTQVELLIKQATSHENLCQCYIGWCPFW
Method in brief: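 Enzyme 0.5 nM, GFP-4EBP1 400 nM, ATP 8 μM (all final); 50 mM HEPES pH 7.5, 10 mM MnCl2, 1 mM DTT; rt. Detection: Tb-α-p4EBP1 [pT46] 0.5 nM in EDTA, TR-FRET, 15 min. Reference compound on every plate, 16-point duplicate dilutions.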

[9] = target: T5, PI3K gamma (Homo sapiens, UniProt P48736); assay: PI3K gamma kinase assay (Kinase-Glo luminescence); assay type: biochemical
T5 construct: His tag (C); made in house; host or cells: baculovirus (pVL1393); Tn5 or TiniPro insect cells; construct from Roger Williams lab, MRC LMB
T5 sequence (P48736 144-1102 limits assumed): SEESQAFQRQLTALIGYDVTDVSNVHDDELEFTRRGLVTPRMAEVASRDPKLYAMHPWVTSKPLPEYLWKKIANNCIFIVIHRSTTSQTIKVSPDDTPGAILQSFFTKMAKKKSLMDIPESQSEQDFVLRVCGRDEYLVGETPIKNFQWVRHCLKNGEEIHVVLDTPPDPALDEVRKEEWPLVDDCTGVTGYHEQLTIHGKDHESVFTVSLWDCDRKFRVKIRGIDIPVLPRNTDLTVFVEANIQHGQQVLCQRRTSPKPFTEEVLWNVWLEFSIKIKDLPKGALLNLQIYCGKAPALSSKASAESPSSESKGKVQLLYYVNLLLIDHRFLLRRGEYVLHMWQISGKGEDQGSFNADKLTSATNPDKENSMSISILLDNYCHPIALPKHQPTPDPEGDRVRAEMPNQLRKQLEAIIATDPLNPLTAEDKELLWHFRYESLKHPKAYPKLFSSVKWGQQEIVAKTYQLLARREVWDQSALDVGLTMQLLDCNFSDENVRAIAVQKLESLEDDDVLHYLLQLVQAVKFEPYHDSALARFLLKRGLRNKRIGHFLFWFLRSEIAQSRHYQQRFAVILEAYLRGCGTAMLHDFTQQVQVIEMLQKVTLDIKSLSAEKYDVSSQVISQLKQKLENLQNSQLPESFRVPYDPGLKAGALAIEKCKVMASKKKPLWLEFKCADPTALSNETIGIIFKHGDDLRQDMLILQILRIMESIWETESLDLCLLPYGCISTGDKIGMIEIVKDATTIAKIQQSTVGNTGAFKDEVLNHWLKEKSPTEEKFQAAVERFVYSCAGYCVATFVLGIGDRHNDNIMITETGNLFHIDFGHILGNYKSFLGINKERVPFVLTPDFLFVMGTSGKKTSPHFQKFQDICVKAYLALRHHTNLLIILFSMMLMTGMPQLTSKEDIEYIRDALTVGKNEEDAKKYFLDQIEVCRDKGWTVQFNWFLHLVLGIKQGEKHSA
Description: as §1, §2, §3, §4

pIC50 [1] | solubility [2] [µg/mL] | pIC50 [3] | pIC50 [4] | pIC50 [5] | pIC50 [6] | pIC50 [7] | pIC50 [8] | pIC50 [9] | SMILES
6.86 | > 487 | 6.73 | 7.24 | 6.29 | 6.65 | 7.34 |  |  | CCOc1cc(-c2ccc3ncc4c(c3c2)n(-c2c(C)nn(CCOC)c2C)c(=O)n4C)cnc1C [Example 85.2, 8-(5-Ethoxy-6-methyl-pyridin-3-yl)-1-[1-(2-methoxy-ethyl)-3,5-dimethyl-1H-pyrazol-4-yl]-3-methyl-1,3-dihydro-imidazo[4,5-c]quinolin-2-one]
6.21 |  | 6.85 | 7.07 | 6.87 | 6.66 | 6.84 | 6.79 | 6.10 | CCn1nccc1-n1c(=O)n(C)c2cnc3ccc(-c4ccc(OC)nc4)cc3c21 [Example 2.6, 1-(2-Ethyl-2H-pyrazol-3-yl)-8-(6-methoxy-pyridin-3-yl)-3-methyl-1,3-dihydro-imidazo[4,5-c]quinolin-2-one]
6.49 | 479 (≈ 986 µM) | 6.91 | 7.15 | 6.31 | 6.25 | 7.15 |  |  | COCCn1nc(C)c(-n2c(=O)n(C)c3cnc4ccc(-c5cncc(NC(C)C)c5)cc4c32)c1C [Example 177.2, 8-(5-Isopropylamino-pyridin-3-yl)-1-[1-(2-methoxy-ethyl)-3,5-dimethyl-1H-pyrazol-4-yl]-3-methyl-1,3-dihydro-imidazo[4,5-c]quinolin-2-one]
6.33 | > 473 | 6.63 | 6.64 | 6.29 | 6.11 | 6.68 |  |  | CCOc1ccc(-c2ccc3ncc4c(c3c2)n(-c2c(C)nn(CCOC)c2C)c(=O)n4C)cn1 [Example 3.11, 8-(6-Ethoxy-pyridin-3-yl)-1-[1-(2-methoxy-ethyl)-3,5-dimethyl-1H-pyrazol-4-yl]-3-methyl-1,3-dihydro-imidazo[4,5-c]quinolin-2-one]
 |  | 6.92 | 6.40 | 6.86 | 6.33 | 7.11 |  | 6.25 | CCOc1ccc(-c2ccc3ncc4c(c3c2)n(-c2cc(C(F)(F)F)nn2C)c(=O)n4C)cn1 [Example 3.2, 8-(6-Ethoxy-pyridin-3-yl)-3-methyl-1-(2-methyl-5-trifluoromethyl-2H-pyrazol-3-yl)-1,3-dihydro-imidazo[4,5-c]quinolin-2-one]
6.89 | 237 (≈ 518 µM) |  | 7.80 |  |  | 7.41 | 7.60 |  | CCn1cc(-n2c(=O)n(C)c3cnc4ccc(-c5cnc(COC)c(NC)c5)cc4c32)c(C)n1 [Example 160.2, 1-(1-Ethyl-3-Methyl-1H-pyrazol-4-yl)-8-(6-methoxymethyl-5-methylamino-pyridin-3-yl)-3-methyl-1,3-dihydro-imidazol[4,5-c]quinolin-2-one]

Continued, molecule first:

SMILES | pIC50 [1] | solubility [2] [µg/mL] | pIC50 [3] | pIC50 [4] | pIC50 [5] | pIC50 [6] | pIC50 [7] | pIC50 [8] | pIC50 [9]
COc1ncc(-c2ccc3ncc4c(c3c2)n(-c2cn(C)nc2C)c(=O)n4C)cc1C(=O)O [Example 124, 5-[1-(1,3-Dimethyl-1H-pyrazol-4-yl)-3-methyl-2-oxo-2,3-dihydro-1H-imidazo[4,5-c]quinolin-8-yl]-2-methoxy-nicotinic acid] | 7.08 |  |  | 7.70 |  |  | 7.43 | 7.28 | 6.93
COc1ccc(-c2ccc3ncc4c(c3c2)n(-c2cn(CC(=O)O)nc2C)c(=O)n4C)cn1 [Example 101, {4-[8-(6-Methoxy-pyridin-3-yl)-3-methyl-2-oxo-2,3-dihydro-imidazo[4,5-c]quinolin-1-yl]-3-methyl-pyrazol-1-yl}-acetic acid] | 7.64 |  |  | 7.82 |  |  | 8.30 | > 8.52 | 6.86
Cc1nn(C)cc1-n1c(=O)n(C)c2cnc3ccc(-c4cncc(CNS(C)(=O)=O)c4)cc3c21 [Example 232] | 7.00 | 83 (≈ 174 µM) |  | 7.22 |  |  | 7.36 | 7.25 | 
Cc1nn(C)cc1-n1c(=O)n(C)c2cnc3ccc(-c4cncc(N)c4)cc3c21 [Example 45] |  |  |  |  |  |  |  |  | 6.55
Cc1nn(C)cc1-n1c(=O)n(C)c2cnc3ccc(-c4cncc(CN)c4)cc3c21 [Example 230, 8-(5-Aminomethyl-pyridin-3-yl)-1-(1,3-dimethyl-1H-pyrazol-4-yl)-3-methyl-1,3-dihydro-imidazo[4,5-c]quinolin-2-one] | 6.46 | > 399 |  | 6.36 |  |  | 7.00 | 6.33 | 
Cc1nn(C)cc1-n1c(=O)n(C)c2cnc3ccc(-c4ccc(OCCOCc5ccccc5)nc4)cc3c21 [Example 19, 8-[6-(2-Benzyloxy-ethoxy)-pyridin-3-yl]-1-(1,3-dimethyl-1H-pyrazol-4-yl)-3-methyl-1,3-dihydro-imidazo[4,5-c]quinolin-2-one] |  |  |  | 6.33 |  |  | 6.32 |  | 6.01
